Reference: patent US20100105746A1, “METHOD FOR TREATING METABOLIC DISEASES” (priority 2008, published 2010)

Key:
rat PPARα = molecular target: T1, rat PPARα (Rattus norvegicus, UniProt P37230); test: PPARRE-luciferase reporter in HepG2 cells transfected with rat PPARα; type: cell-based; settings: retinoic acid 200 nM, read-out: EC50 activation of rat PPARα (rPPARα)
T1 construct: expressed in transfected cells; host or cells: HepG2
T1 sequence (P37230 1-468): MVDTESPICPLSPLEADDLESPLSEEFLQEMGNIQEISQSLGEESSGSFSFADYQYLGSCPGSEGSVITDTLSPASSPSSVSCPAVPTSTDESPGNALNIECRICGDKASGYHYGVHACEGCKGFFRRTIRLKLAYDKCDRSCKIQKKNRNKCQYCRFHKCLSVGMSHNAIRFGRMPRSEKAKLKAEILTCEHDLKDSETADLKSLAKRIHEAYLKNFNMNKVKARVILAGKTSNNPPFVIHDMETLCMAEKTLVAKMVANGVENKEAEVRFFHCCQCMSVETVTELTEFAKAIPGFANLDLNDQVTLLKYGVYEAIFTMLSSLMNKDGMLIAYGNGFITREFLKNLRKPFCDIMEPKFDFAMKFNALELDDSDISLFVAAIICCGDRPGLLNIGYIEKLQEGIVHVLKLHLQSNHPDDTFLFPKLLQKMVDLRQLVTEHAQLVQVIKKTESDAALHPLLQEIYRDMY
Experimental: For this study, a luciferase reporter plasmid containing 5 copies of a defined genetic regulatory PPARα response element (PPARRE) was utilized to detect romazarit-induced PPARRE activation in presence of a co-activator, retinoic acid. Specifically, HepG2 cells were transfected with expression vectors for either human or rat PPARα and the PPARRE-luciferase reporter plasmid. After 24 hours, the cells were trypsanized and subsequently seeded in 96-well clear-bottom plates at a density of 1.0×10^5 cells/ml.

[1] = Body weight, food consumption and liver weight in diet-induced obese (DIO) rat model (Example 4); type: in vivo; settings: for liver weight: rat, in vivo, po
Experimental: Male Sprague-Dawley rats were acclimated for 7 weeks on a high-fat diet before commencement of dose administration, and maintained on the same diet throughout the subsequent dosing period of 23 days. The high-fat diet (D12492 commercially available from Research Diets, Inc., New Brunswick, N.J.) was one in which at least 60% of calories are derived from fat.
Dose levels of gemfibrozil (50 mg/kg) and sibutramine (10 mg/kg) were selected based on published reports. All treatments were administered once daily by oral gavage in 10 ml vehicle. A vehicle-only control was also administered. Each treatment group consisted of 10 animals.
Body weight of each animal was measured weekly during the 7-week acclimation period and five times weekly during the 23-day dosing period. Food consumption was recorded twice weekly during the 7-week acclimation period and five times weekly during the 23-day dosing period.
Animals were sacrificed and liver weights measured at conclusion of the study.

[2] = LC-MS of plasma amino acids and thyroxine in rats (Example 2); type: in vivo, rat; settings: 7 days
Experimental: (§1) In an initial experiment, two dose groups of six animals per group received either 5 or 50 mg/kg b.i.d., and a further group received vehicle only, as a control. A follow-up experiment was performed to explore dose-response and the selected doses were 15 and 50 mg/kg b.i.d., again plus control.
In both experiments, urine was collected from each animal by clean-catch after the final dose on day 7, and cerebrospinal fluid (CSF) and plasma were collected (terminal samples) on day 8. Aliquots of the CSF and plasma samples from each individual were submitted for LC-MS analyses of bioanalytes. Three different separation methods were run, with MS analyses in both positive and negative ion modes, to enable resolution of relative quantification of the bioanalytes.

[3] = Multiplex bioanalytics profiling of plasma lipids in drug-dosed rats (Example 1); type: in vivo, rat; settings: 7 days
Experimental: Multiplex bioanalytics profiling can elucidate novel pharmacological actions of drugs via measurement of hundreds of disease-relevant biomolecules in biofluids collected from drug-dosed animals. Romazarit was evaluated via a full multiplex bioanalytics profiling study.
as §1
In both experiments, urine was collected from each animal by clean-catch after the final dose on day 7, and cerebrospinal fluid (CSF) and plasma were collected (terminal samples) on day 8. Aliquots of the CSF and plasma samples from each individual were submitted for LC-MS analyses of bioanalytes. Three different separation methods were run, with MS analyses in both positive and negative ion modes, to enable resolution of relative quantification of the bioanalytes. These methods included: • RP-I: LC-MS of polar and non-polar abundant lipids (e.g., individual cholesterol esters, triglycerides, diacylglycerols, phospholipids, lysophospholipids); • RP-II: LC-MS of lower abundance bioanalytes (e.g., eicosanoids & other lipid mediators, fatty acids, oxidized fatty acids, bile acids, conjugated bile acids); • PLR: LC-MS of polar compounds (e.g., catecholamines & serotonin pathway, amino acids, organic acids, sugars).

[4] = Plasma lipids, lipoproteins and liver weight in normal rats versus fibrates (Example 8); type: in vivo, rat; settings: once daily p.o. 7 days
Description: The study design was based on the protocols used in Examples 1-3. Male Sprague-Dawley rats were provided normal chow ad libitum, both before and during the study period. […] Six rats were assigned to each treatment group (8 to the vehicle control). The study terminated on the day following administration of the seventh dose (day 8), with terminal blood collected for plasma lipid and lipoprotein analyses including LC-MS-based determination of lipid profiles, total and free cholesterol analyses, and lipoprotein cholesterol determinations (VLDL, LDL and HDL).
In order to elucidate the impact of romazarit on plasma lipoproteins, an ultraviolet (UV) size exclusion chromatography (SEC) system was used to separate plasma into broad lipoprotein-containing fractions that were based on relative retention times of human VLDL (very low density lipoprotein), LDL (low density lipoprotein), and HDL (high density lipoprotein) standards. These fractions were collected for cholesterol assays and the UV chromatograms were integrated to provide relative quantitation of the three lipoprotein types. It is important to note that since the UV absorbance measurement is not specific for lipoproteins and may also derive from other plasma constituents that co-elute with a particular lipoprotein, the relative quantitation data reported here is an approximation. The HDL fraction in particular may have included such co-eluting species, as evidenced by the relatively high integrated area values for this fraction.

[5] = DIO rats, 50 mg/kg once daily p.o.
[6] = DIO rats, 100 mg/kg once daily p.o.
[7] = 50 mg/kg b.i.d. p.o., second experiment
[8] = 5 and 50 mg/kg b.i.d. p.o., initial experiment

EC50 (rat PPARα): ~200 µM
SMILES: Cc1nc(-c2ccc(Cl)cc2)oc1COC(C)(C)C(=O)O [romazarit, 2-[[2-(4-chlorophenyl)-4-methyl-5-oxazolyl]methoxy]-2-methylpropanoic acid]
food consumption ([1]; DIO rats, 15 mg/kg once daily p.o., throughout the dosing period): comparable to the vehicle control
day by which food consumption returned to levels comparable to the vehicle control [1, 5]: ≤ 15 days
day of minimum food consumption [1, 5]: 6 days
body weight loss by comparison with the vehicle control ([1]; DIO rats, 50 mg/kg once daily p.o., day 16): 10.3%
body weight loss by comparison with the vehicle control ([1]; DIO rats, 50 mg/kg once daily p.o., day 23): 4.6%
food consumption ([1]; DIO rats, 50 mg/kg once daily p.o., first 13 days of the dosing period): significantly less than the vehicle control
day by which food consumption returned to levels comparable to the vehicle control [1, 6]: ≤ 15 days
day of minimum food consumption [1, 6]: 8 days
body weight loss by comparison with the vehicle control (maximum) ([1]; DIO rats, 100 mg/kg once daily p.o., day 16): 16%
body weight loss by comparison with the vehicle control ([1]; DIO rats, 100 mg/kg once daily p.o., end of study (day 23)): 13.3%
food consumption ([1]; DIO rats, 100 mg/kg once daily p.o., first 13 days of the dosing period): significantly less than the vehicle control
liver weight ([1]; 15 mg/kg): No increase in liver weight
liver weight ([1]; 50 mg/kg): Increased liver weight
liver weight ([1]; 100 mg/kg): Increased liver weight
plasma amino acids [2, 7]: generally similar to those for the same dose in the initial experiment
plasma thyroxine [2, 7]: generally similar to those for the same dose in the initial experiment
levels of common amino acids in plasma [2, 8]: small but significant lowering
plasma thyroxine (T4) [2, 8]: concomitant decrease
plasma triglycerides ([3]; 5 mg/kg b.i.d. p.o., initial experiment): also apparent
plasma triglycerides ([3]; 15 mg/kg b.i.d. p.o., second experiment): lowered plasma triglycerides to a degree that was intermediate
plasma triglycerides ([3]; 50 mg/kg b.i.d. p.o., initial experiment): highly pronounced
plasma cholesterol esters [3, 7]: generally similar to those seen with the same dose in the initial experiment
plasma triglycerides [3, 7]: generally similar to those seen with the same dose in the initial experiment
plasma cholesterol esters [3, 8]: increased
potency in lowering plasma free fatty acids compared to the other compounds tested ([4]; 50 and 100 mg/kg): superior potency
plasma cholesterol esters ([4]; 50 and 100 mg/kg (romazarit also 10 mg/kg)): increased at least some fractions of plasma cholesterol esters
plasma free fatty acids ([4]; romazarit 10, 50 and 100 mg/kg): lowered plasma free fatty acids in a dose-dependent manner
plasma triglycerides ([4]; romazarit 10, 50 and 100 mg/kg): significantly lowered
